Measurements taken from patent US20230027066A1 (Urovant Sciences GmbH, priority 2019, published 2023).

System: men and women with overactive bladder
Test: Phase 3 study of vibegron 75 mg vs placebo and tolterodine ER 4 mg, 12 weeks, efficacy (voiding and urine volume diary)
Assay type: in vivo, human
Conditions: for Patients with at Least 75% Reduction in Total Incontinence, Adjusted (%) / Patients with at Least 75% Reduction in Total Incontinence, Adjusted n / Patients with at Least 75% Reduction in Total Incontinence, Unadjusted (%) / Patients with at Least 75% Reduction in Total Incontinence, Unadjusted n / Total Incontinence 75% responders, Active - Placebo CMH Difference: FAS-I
Method: Enrollment of patients included individuals with OAB Wet (those with UUI, the involuntary loss of urine accompanied by urgency) and OAB Dry (those without UUI). A total of 1,518 patients were randomized across 215 study sites into one of three groups for a 12-week treatment period.
The study consisted of a Screening Period (1 to 5 weeks), a single-blind Run-in Period (2 weeks), a randomized double-blind Treatment Period (12 weeks), and a Follow-up Period (4 weeks).
Tolterodine ER 4 mg was the active control. […] Between the Baseline and Week 12 Visits, patients had study assessments at Week 4 and Week 8.
The Patient Voiding Diary was used by participants (via the eDiary or paper Diary) to record the frequency of daily OAB symptoms including all micturitions, urgency, incontinence, and main reason for incontinence by selecting the respective box for each symptom occurring during the course of a given day and night.
Urine volume data were collected separately by patients using the Urine Volume component of the eDiary, or the paper Urine Volume Chart. The Urine Volume Chart is a tool used in clinical practice and clinical investigation to assess voiding functions over a 24-hour period and is regarded as a useful instrument in the investigation of patients with voiding symptoms. Urine volume may be collected during any one (1) of the 7 Diary Days prior to the visit, and it should be recorded for ˜24 hours starting from the time the patient gets up for the day and continues until the time the patient gets up for the day on the next day.
For the purpose of this study, the number of micturitions was defined as the number of times a patient has voided in the toilet as indicated on the Patient Voiding Diary. Average daily micturitions were calculated using the daily entries in the Patient Voiding Diary, which was completed over the 7 days prior to each study visit. Average daily number of micturitions were calculated as the total number of micturitions that occurred on a Complete Diary Day divided by the number of Complete Diary Days in the Patient Voiding Diary. A complete diary day required confirmation by the patient in the Patient Voiding Diary that all voids and leakages had been recorded for the diary day. Baseline was defined as the average number of micturitions occurring during the last evaluable diary prior to the Baseline Visit.
The number of UUI episodes was defined as the number of times a patient had checked “urge” as the reason for accidental urine leakage. Average daily UUI episodes at each study visit were calculated in the same manner as described above for the micturition endpoint. The UUI endpoint were analyzed using only OAB Wet patients.
For the analysis of the co-primary endpoints (change from baseline in average number of daily micturitions at Week 12 and change from baseline in average number of daily urge urinary incontinence episodes at Week 12, and placebo adjustment of each), a mixed model for repeated measure (MMRM) with restricted maximum likelihood estimation was used. This model corrects for dropout and accounts for the fact that measurements taken on the same patient over time tend to be correlated by using all available information on patients within the same covariate set to derive an estimate of the treatment effect for a dropout-free population. The analysis model for each efficacy endpoint includes terms for treatment, visit, OAB Type (Wet vs Dry), Sex (Female vs Male), Region (US vs Rest of World), baseline score, and interaction of visit by treatment.
Primary inferences were drawn from treatment differences for the changes from baseline derived from the MMRM models at Week 12. As part of secondary objectives, the treatment differences for each post baseline visit were also derived using the same MMRM model. […]

[1] = subjects with prior ACH use, vibegron 75 mg, Week 12
[2] = vibegron 75 mg or tolterodine ER 4 mg
[3] = vibegron 75 mg or tolterodine ER 4 mg once daily
[4] = vibegron 75 mg or tolterodine ER 4 mg once daily, OAB Wet
[5] = vibegron 75 mg or tolterodine ER 4 mg, OAB Wet

`O=C(Nc1ccc(C[C@@H]2CC[C@H]([C@H](O)c3ccccc3)N2)cc1)[C@@H]1CCc2nccc(=O)n21` [Vibegron, (6S)-N-[4-[[(2S,5R)−5-[(R)-hydroxy(phenyl)methyl]pyrrolidin−2-yl]methyl]phenyl]−4-oxo−7,8-dihydro−6H-pyrrolo[1,2-a]pyrimidine−6-carboxamide] was tested, and the “UUI Episodes, change at Week 12, mean (SD)” value (Week 12, subpopulation Age ≥65 years) was −1.94 (2.50), the “Daily Urgency, change at Week 12” value (Week 12, subpopulation Age ≥65 years, posthoc analysis) was −2.7 and the “Micturitions: Week 12 CFB Mean (descriptive statistics)” value (Week 12, ≥65 yrs) was −2.10. The “Patients with at Least 75% Reduction in Total Incontinence, Adjusted (%)” value (baseline to Week 2) was 22.1%, the “Patients with at Least 75% Reduction in Total Incontinence, Adjusted n” value (baseline to Week 2) was 89 and the “Patients with at Least 75% Reduction in Total Incontinence, Unadjusted (%)” value (baseline to Week 2) was 23.6%. For the same molecule, the “Patients with at Least 75% Reduction in Total Incontinence, Unadjusted n” value (baseline to Week 2) was 95, the “Total Incontinence 75% responders, Active - Placebo CMH Difference” value (baseline to Week 2) was 9.3 and the “Patients with at Least 75% Reduction in Total Incontinence, Adjusted (%)” value (baseline to Week 4) was 31.5%. The “Patients with at Least 75% Reduction in Total Incontinence, Adjusted n” value (baseline to Week 4) was 127, the “Patients with at Least 75% Reduction in Total Incontinence, Unadjusted (%)” value (baseline to Week 4) was 34.5% and the “Patients with at Least 75% Reduction in Total Incontinence, Unadjusted n” value (baseline to Week 4) was 139. For the same molecule, the “Total Incontinence 75% responders, Active - Placebo CMH Difference” value (baseline to Week 4) was 11.8, the “Patients with at Least 75% Reduction in Total Incontinence, Adjusted (%)” value (baseline to Week 8) was 42.0% and the “Patients with at Least 75% Reduction in Total Incontinence, Adjusted n” value (baseline to Week 8) was 169. The “Patients with at Least 75% Reduction in Total Incontinence, Unadjusted (%)” value (baseline to Week 8) was 43.7%, the “Patients with at Least 75% Reduction in Total Incontinence, Unadjusted n” value (baseline to Week 8) was 176 and the “Total Incontinence 75% responders, Active - Placebo CMH Difference” value (baseline to Week 8) was 14.7. For the same molecule, the “Patients with at Least 75% Reduction in Total Incontinence, Adjusted (%)” value (baseline to Week 12) was 47.3%, the “Patients with at Least 75% Reduction in Total Incontinence, Adjusted n” value (baseline to Week 12) was 191 and the “Patients with at Least 75% Reduction in Total Incontinence, Unadjusted (%)” value (baseline to Week 12) was 50.1%. The “Patients with at Least 75% Reduction in Total Incontinence, Unadjusted n” value (baseline to Week 12) was 202, the “Total Incontinence 75% responders, Active - Placebo CMH Difference” value (baseline to Week 12) was 15.8 and the “UUI, Week 12 LS mean change from baseline (placebo adjusted) (95% CI)” value (shortened to “UUI, Week 12 LS mean change … (95% CI)”) (subgroup Age <65 years, vibegron 75 mg or tolterodine ER 4 mg) was −0.5 (−0.9 to −0.1). For the same molecule, the “UUI, Week 12 LS mean change … (95% CI)” value (subgroup Age ≥65 years, vibegron 75 mg or tolterodine ER 4 mg) was −0.8 (−1.2 to −0.3), the “UUI, Week 12 LS mean change … (95% CI)” value (subgroup Age ≥75 years (posthoc analysis), vibegron 75 mg or tolterodine ER 4 mg) was −1.6 (−2.4 to −0.8) and the “UUI, Week 12 LS mean change … (95% CI)” value (subgroup Females, vibegron 75 mg or tolterodine ER 4 mg) was −0.7 (−1.0 to −0.4). For the same molecule, the “UUI, Week 12 LS mean change … (95% CI)” value (subgroup Males, vibegron 75 mg or tolterodine ER 4 mg) was −0.1 (−0.9 to 0.8), the “UUI, Week 12 LS mean change … (95% CI)” value (subgroup Non-White, vibegron 75 mg or tolterodine ER 4 mg) was 0.0 (−0.6 to 0.7) and the “UUI, Week 12 LS mean change … (95% CI)” value (subgroup Region: Non-US, vibegron 75 mg or tolterodine ER 4 mg) was −1.1 (−1.8 to −0.3). For the same molecule, the “UUI, Week 12 LS mean change … (95% CI)” value (subgroup Region: US, vibegron 75 mg or tolterodine ER 4 mg) was −0.5 (−0.8 to −0.2), the “UUI, Week 12 LS mean change … (95% CI)” value (subgroup White, vibegron 75 mg or tolterodine ER 4 mg) was −0.8 (−1.1 to −0.4) and the “decrease in average number of UUI episodes in 24 hours, times the decrease with placebo” value [1] was “about 1.75 times”. For the same molecule, the “decrease in average number of micturitions in 24 hours, more than the decrease with placebo” value [1] was “about 0.7”, the “decrease in average number of micturitions in 24 hours, more than the decrease with placebo” value (subjects with prior B3 use, vibegron 75 mg, Week 12) was “about 2.9” and the “total daily incontinence, placebo adjusted, week 2” value (vibegron 75 mg) was −0.7. For the same molecule, the “average volume voided, placebo-adjusted mean change from baseline, week 12” value [2] was 21.2 mL, the “placebo-adjusted mean total daily incontinence episodes, week 12” value [2] was −0.7 episodes and the “proportion of patients (UUI responders) with 75% or more reduction in daily UUI episodes, week 12” value [2] was 49.3%. The “Micturitions, active-placebo LS mean difference, Week 2” value [3] was −0.5, the “Micturitions, active-placebo LS mean difference, Week 4” value [3] was −0.6 and the “Micturitions, active-placebo LS mean difference, Week 8” value [3] was −0.6. For the same molecule, the “Micturitions, active-placebo LS mean difference, Week 12” value [3] was −0.5, the “Micturitions, average daily number, Week 2 mean” value [3] was 10.18 and the “Micturitions, average daily number, Week 4 mean” value [3] was 9.84. The “Micturitions, average daily number, Week 8 mean” value [3] was 9.53, the “Micturitions, average daily number, Week 12 mean” value [3] was 9.32 and the “Micturitions, change from baseline LS mean, Week 2” value [3] was −0.8. For the same molecule, the “Micturitions, change from baseline LS mean, Week 4” value [3] was −1.1, the “Micturitions, change from baseline LS mean, Week 8” value [3] was −1.4 and the “Micturitions, change from baseline LS mean, Week 12” value [3] was −1.8. For the same molecule, the “UUI episodes, active-placebo LS mean difference, Week 2” value [4] was −0.6, the “UUI episodes, active-placebo LS mean difference, Week 4” value [4] was −0.7 and the “UUI episodes, active-placebo LS mean difference, Week 8” value [4] was −0.6. For the same molecule, the “UUI episodes, average daily number, Week 2 mean” value [4] was 2.03, the “UUI episodes, average daily number, Week 4 mean” value [4] was 1.77 and the “UUI episodes, average daily number, Week 8 mean” value [4] was 1.65. The “UUI episodes, average daily number, Week 12 mean” value [4] was 1.46, the “UUI episodes, change from baseline LS mean, Week 2” value [4] was −1.4 and the “UUI episodes, change from baseline LS mean, Week 4” value [4] was −1.7. The “UUI episodes, change from baseline LS mean, Week 8” value [4] was −1.8, the “UUI episodes, change from baseline LS mean, Week 12” value [4] was −2.0 and the “Estimated incidence of subjects with 75% decrease from baseline in UUI episodes, Week 2” value [5] was 24.3. For the same molecule, the “Estimated incidence of subjects with 75% decrease from baseline in UUI episodes, Week 4” value [5] was 26.6, the “Estimated incidence of subjects with 75% decrease from baseline in UUI episodes, Week 8” value [5] was 41.3 and the “Estimated incidence of subjects with 75% decrease from baseline in UUI episodes, Week 12” value [5] was 52.7. For the same molecule, the “First 75% reduction in UUI episodes, Events/Censored, Week 2” value [5] was 98/305, the “First 75% reduction in UUI episodes, Events/Censored, Week 4” value [5] was 107/296 and the “First 75% reduction in UUI episodes, Events/Censored, Week 8” value [5] was 166/237. For the same molecule, the “First 75% reduction in UUI episodes, Events/Censored, Week 12” value [5] was 210/193, the “Overall time to first 75% decrease in UUI episodes, 25th percentile” value [5] was 3.9 weeks and the “Overall time to first 75% decrease in UUI episodes, 75th percentile” value [5] was 13.1 weeks. For the same molecule, the “Overall time to first 75% decrease in UUI episodes, median (95% CI)” value [5] was 8.4 (8.1 to 12.1) weeks, the “Time to first 75% decrease in UUI episodes, Events/Censored (overall)” value [5] was 239/164 and the “total daily incontinence, mean change from baseline (reduction)” value (vibegron 75 mg, after 12 weeks) was 2.3 episodes. For the same molecule, the “statistically significant onset of action, reduction in urge urinary incontinence (UUI)” value (vibegron 75 mg/day, FIG. 4) was 2 weeks, the “statistically significant onset of action, reduction in micturitions” value (vibegron 75 mg/day, FIG. 5) was 2 weeks and the “statistically significant onset of action, reduction in urgency episodes” value (vibegron 75 mg/day, FIG. 6) was 2 weeks. The “statistically significant onset of action, urge incontinence responder rate” value (vibegron 75 mg/day, FIG. 7) was 2 weeks, the “statistically significant onset of action, reductions in total incontinence episodes” value (vibegron 75 mg/day, FIG. 9) was 2 weeks and the “statistically significant onset of action, improvement in volume voided” value (vibegron 75 mg/day, FIG. 10) was 2 weeks.
